This experiment deals with ROCK2 (human) (UniProt O75116). Kind of experiment: Assessment of ROCK2 Kinase Activity.

pIC50: −log10 of the molar value.

Chain of ROCK2 (human) (O75116 whole entry, looked up): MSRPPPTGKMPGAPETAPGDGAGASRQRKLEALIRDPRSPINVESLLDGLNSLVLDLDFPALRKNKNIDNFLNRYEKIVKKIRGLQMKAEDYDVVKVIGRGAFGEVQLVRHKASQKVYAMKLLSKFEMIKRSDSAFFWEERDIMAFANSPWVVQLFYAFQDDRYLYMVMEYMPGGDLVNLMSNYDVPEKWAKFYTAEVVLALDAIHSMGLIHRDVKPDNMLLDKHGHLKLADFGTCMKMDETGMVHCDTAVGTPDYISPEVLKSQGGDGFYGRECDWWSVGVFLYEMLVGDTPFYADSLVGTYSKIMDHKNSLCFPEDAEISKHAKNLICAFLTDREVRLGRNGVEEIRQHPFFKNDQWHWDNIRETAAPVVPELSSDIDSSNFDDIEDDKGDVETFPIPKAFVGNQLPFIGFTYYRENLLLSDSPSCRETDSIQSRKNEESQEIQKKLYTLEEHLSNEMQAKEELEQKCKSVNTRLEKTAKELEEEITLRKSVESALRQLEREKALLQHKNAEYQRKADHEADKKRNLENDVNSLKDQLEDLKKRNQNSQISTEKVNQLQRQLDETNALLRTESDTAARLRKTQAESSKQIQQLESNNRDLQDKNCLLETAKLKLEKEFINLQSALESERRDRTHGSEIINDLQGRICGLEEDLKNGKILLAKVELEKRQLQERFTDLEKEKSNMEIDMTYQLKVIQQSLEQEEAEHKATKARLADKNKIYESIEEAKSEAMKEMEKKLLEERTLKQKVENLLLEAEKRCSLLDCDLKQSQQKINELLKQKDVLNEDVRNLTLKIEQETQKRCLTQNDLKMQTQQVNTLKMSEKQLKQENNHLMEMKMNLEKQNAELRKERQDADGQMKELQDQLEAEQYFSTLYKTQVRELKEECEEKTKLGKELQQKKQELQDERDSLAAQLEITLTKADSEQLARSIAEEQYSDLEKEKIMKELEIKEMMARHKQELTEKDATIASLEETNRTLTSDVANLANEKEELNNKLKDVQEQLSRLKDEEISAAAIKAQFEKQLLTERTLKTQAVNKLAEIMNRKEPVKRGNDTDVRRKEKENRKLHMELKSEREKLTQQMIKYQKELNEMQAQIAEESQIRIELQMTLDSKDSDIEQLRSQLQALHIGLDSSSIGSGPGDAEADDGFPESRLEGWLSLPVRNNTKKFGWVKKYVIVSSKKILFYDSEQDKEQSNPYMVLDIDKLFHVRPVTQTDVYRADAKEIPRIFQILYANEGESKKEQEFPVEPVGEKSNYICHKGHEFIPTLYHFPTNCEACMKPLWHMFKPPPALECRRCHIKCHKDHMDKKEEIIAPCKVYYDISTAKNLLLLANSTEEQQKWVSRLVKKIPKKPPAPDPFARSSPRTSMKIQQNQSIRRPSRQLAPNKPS

What is called pIC50 is the IC50 on a negative log10 scale, so that one unit is a factor of ten. Read a low pIC50 as a large IC50. Take `O=c1[nH]ccc2cc(N[C@@H]3CCCN(Cc4ccccc4)C3)ccc12`: the pIC50 was at least 6.00. Turning to `CCCCN1CCC[C@@H](Nc2ccc3c(=O)[nH]ccc3c2)C1`, the negative-log IC50 (pIC50) was at least 6.00.

`O=c1[nH]ccc2cc(SC3CCNCC3)c(Cl)cc12` gave a negative logarithm of the IC50 (pIC50) of at least 6.00. For `Clc1cc2cnccc2cc1SC1CCCNC1` (stereo not given) the value was at least 6.00; for `Cc1ccc(CN2CC[C@H](Nc3ccc4c(=O)[nH]ccc4c3)C2)cc1`, at least 6.00; for `O=c1[nH]ccc2cc(N[C@H]3CCN(CC4CC4)C3)ccc12`, at least 6.00. `O=c1[nH]ccc2cc(N[C@@H]3CCCN(Cc4ccc5ccccc5c4)C3)ccc12`: the pIC50 is at least 6.00.

With `O=c1[nH]ccc2cc(S(=O)(=O)C3CCNCC3)c(Cl)cc12`, the pIC50 was at least 6.00. `O=c1[nH]ccc2cc(NC3CN(Cc4ccccc4Cl)C3)ccc12` had a pIC50 of at least 6.00. For `CCCc1cc2cnccc2cc1SC1CCNCC1` the value was at least 6.00; for `O=c1[nH]ccc2cc(NC3CN(Cc4cccc(Cl)c4F)C3)ccc12`, at least 6.00. As for `Brc1cc2cnccc2cc1SC1CCCNCC1` (stereo not given), the pIC50 was at least 6.00. For `O=c1[nH]ccc2cc(N[C@H]3CCN(Cc4ccc5ccccc5c4)C3)ccc12`, the pIC50 is at least 6.00. As for `O=c1[nH]ccc2cc(N[C@H]3CCN(Cc4cccc(Cl)c4F)C3)ccc12`, the pIC50 is at least 6.00. The compound `CC(C)CCN1CCC[C@@H](Nc2ccc3c(=O)[nH]ccc3c2)C1` showed a negative logarithm of the IC50 (pIC50) of at least 6.00.

For the origin of these results see the Kinase Knowledgebase extract (Sharma et al. 2016).
